How the values were obtained:
[1] = system: Maus-Peritonealmakrophagen; test: Activation of mononuclear phagocytes: oxidative metabolism (chemiluminescence) of peritoneal macrophages from treated mice; type: in vivo, NMRI-Mäuse; conditions: relative to maximal activation by compound of Beispiel 8 = 100 %; 100 mg/kg i.p.
Procedure: Hier wurde der Einfluß der nach Ausführungsbeispiel 8 erhaltenen Prüfsubstanz auf die Stimulation von Peritonealmakrophagen bei 6- 8 Wochen alten NMRI-Mäusen untersucht. Mäuseweibchen erhielten auf parenteralem oder oralem Wege die Prüfsubstanz in einer Dosis von 25 mg/kg, 50 mg/kg, 100 mg/kg und 200 mg/kg. Der Kontrollgruppe wurde gepufferte Kochsalzlösung verabreicht. Drei Tage nach den Injektionen wurden die Mäuse getötet, und es wurden die Peritonealmakrophagen der Tiere auf ihren Aktivierungszustand hin untersucht. Als Maß der Makrophagenaktivierung wurde zum einen die Sekretion der lyosomalen Enzyme (ß-Galactosidase, ß-Glucuronidase, N-Acetyl-ß-D-Glucosaminidase) bestimmt. Auf der anderen Seite konnte in vergleichbaren Makrophagenkulturen die Pinozytose durch die Aufnahme von kolloidalem Gold (^19^8Au) - wie sie dem Fachmann bekannt ist - untersucht werden. Die Höhe des oxidativen Stoffwechsels bei Makrophagen gilt als ein weiteres Maß für ihren Aktivierungszustand. Gemessen wird diese Aktivität unter Zuhilfenahme des Biolumaten durch Bestimmung der Chemolumineszenz.
Zu diesem Zweck wurden entweder in Petrischalen von 30 mm Durchmesser 3 x 10^6 Makrophagen mit 1 ml TC 199-Kulturmedium oder aber 10^6 Makrophagen mit 100 µl in Rundbogen-Polyäthylen-Röhrchen (zur Bestimmung der Chemolumineszenz) bei 5 % G02 und 37°C kultiviert.
Nach einstündiger Bebrütung wurden die Kulturen gewaschen, um schwimmende Zellen zu entfernen. Die Chemolumineszenz (Röhrchenkultur) wurde dann direkt bestimmt, während die Petrischalen erneut 24 Stunden bei 37°C bebrütet wurden und danach die Enzym- und Pinozytoseaktivität in den Kulturen bestimmt wurde. Es wurden die nachstehenden Ergebnisse erzielt.
Die parenterale sowie die orale Behandlung von NMRI-Mäusen mit der gemäß Beispiel 8 hergestellten Prüfsubstanz stimuliert die Makrophagenaktivität und hat damit eine immunitätstimulierende Wirkung. So wird der oxidative Stoffwechsel bei Makrophagen mit der Generierung von Sauerstoffradikalen und dem damit verbundenen meßbaren Licht deutlich erhöht. Bei Dosierungen von 25 mg/kg aufwärts kommt es zu einer dosisabhänigen Steigerung der Makrophagenaktivität sowohl bei parenteraler als auch oraler Applikation.
Wie im Experiment 2 beschrieben, wurden NMRI-Mäuse mit den erfindungsgemäßen Verbindungen behandelt.
Als Test zur Erfassung der Immunstimulation wurde die Funktion der Makrophagen (Chemolumineszenz und Enzymaktivität) überprüft.
Tabelle 8 zeigt die relative Wirksamkeit der Prüfsubstanzen bezogen auf die Verbindung aus Beispiel 8, deren maximale Aktivierung (Differenz zwischen Kontrolle und Stimulation) 100 % entspricht. Der Tabelle ist zu entnehmen, daß im Vergleich zu Makrophagen aus unbehandelten Tieren, diese Zellen auch durch alle Prüfsubstanzen in ihrer Chemolumineszenzreaktion stark stimuliert und in ihrem Gehalt an lysosomalen Enzymen deutlich erhöht waren.

Candida albicans = test: Therapeutic treatment of a chronic Candida albicans infection (germ counts in urine and kidneys, kidney necrosis); type: in vivo, Balb/c-Mäuse; conditions: Tag 30, 60 mg/kg i.p. Tag 3-10
Procedure: Bei der therapeutischen Behandlung einer chronischen Candida albicans Infektion wurden weibliche Balb/c-Mäuse (15/Gruppe) am Tag 0 intravenös mit Candida albicans (1 x 10^5 CFU/Maus) infiziert. Nach erfolgter Infektion wurden die Tiere an 8 aufeinanderfolgenden Tagen (Tag 3 - 10) mit jeweils 60 mg/kg der Prüfsubstanz (Verbindung nach Ausführungsbeispiel 8) intraperitoneal behandelt. Den Kontrolltieren wurde physiologische Kochsalzlösung injiziert. An den Tagen 8, 14 und 21 wurden den Tieren Urin entnommen und die Keimzahl bestimmt. Am Tag 30 wurden die Tiere getötet und die Keimzahl und die Nekrosenbildung der Nieren bestimmt. Die Tabelle 6 zeigt, daß die Prüfsubstanz bei therapeutischer Gabe deutlich alle Parameter der chronischen Candida albicans Infektion (Keimzahl in Urin und Nieren und Nekrosenbildung) reduziert und damit die Erkrankung therapeutisch beeinflußt. Während bei den Kontrolltieren sich zu einem hohen Prozentsatz Keime im Urin nachweisen lassen, wird bei den behandelten Tieren die Keimzahl signifikant erniedrigt.
Auch die Keimbesiedlung der Nieren wird durch die Therapie von 63 % auf 27 % reduziert, bei einer gleichzeitigen Verringerung der Nekrosenbildung von 87 % auf 10 %.

[2] = system: zelluläre Immunantwort (DTH-Reaktion) gegen Schafserythrozyten; test: Delayed type hypersensitivity (DTH) reaction against sheep erythrocytes, foot swelling in mice; type: in vivo, NMRI-Mäuse; conditions: relative to maximal activation by compound of Beispiel 8 = 100 %; Dosis 100 mg/kg, 1 x i.p. Tag 0

Compound: Cc1nc(SSc2nc(C)c(CC(=O)O)s2)sc1CC(=O)O [Beispiel 8, Bis-(5-Carboxymethyl-4-methyl-thiazol-2-yl)-disulfid]
- Makrophagenaktivität Chemolumineszenz [1]: 100%
- Keimbesiedlung der Nieren (Candida albicans; control 63 %): 27%
- Nekrosenbildung (Candida albicans; kidneys, control 87 %): 10%
- DTH-Reaktion (SRBC) [2]: 100%
